The values that follow come from ChEMBL document CHEMBL1201862, “PubChem BioAssay data set” (2004).

Where a name gives a salt, the structure may show the parent alone.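 Exposure lasted 48 hours, with cells grown in 96-well plates and compounds tested at five concentrations. Here, GI50 denotes the concentration required for 50% inhibition of growth.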 Calls of active or inactive are those of the source. Rule as the data show it: active = GI50 up to about 1.1 µM and inactive = higher. Where a SMILES comes first, the peptide text is derived from it. The star is where a group is joined. Boc = CC(C)(C)OC(=O)*

Holding throughout (assay): NCI-60 cell line screen, 48 h
The test system of experiment [1] is MDA-N.
Experiment [2] has as its system T47D.
Experiment [3] deals with DLD-1.
Experiment [4] relates to DMS-114.
Experiment [5] has as its system DMS-273.
The test system of experiment [6] is HOP-18.
Experiment [7] concerns LXFL 529.
Experiment [8] deals with XF498.

As to `C[N+]1(C)CCc2cc(O)c(O)cc2C1Cc1ccc(O)c(O)c1` (stereo unspecified), the GI50 in experiment [1] is 32.2 µM (inactive); in experiment [2], 23 µM (inactive).

For the compound `C/C=C/CC(C)[C@@H](O)[C@H](NC)C(=O)O` (stereo partly specified), the GI50 in experiment [3], in experiment [4], in experiment [5], in experiment [6] and in experiment [7] was > 100 µM (inactive) each time.

Turning to `CCOC(=O)Cn1c(C(F)(F)F)nc2nc(Cl)c(Cl)nc21`, the GI50 in experiment [1] is 37.2 µM (inactive); in experiment [2] it was 33.3 µM (inactive).

As to `O=C(O)Cc1nc[nH]c1C(=O)O`, the GI50 in experiment [1] and in experiment [2] was > 100 µM (inactive) in each case.

For `Cc1nc(N)nc(N)c1CCCc1ccccc1`, the GI50 in experiment [3] was 12.1 µM (inactive); in experiment [4], 4.48 µM (inactive); in experiment [7] it was 8.05 µM (inactive); in experiment [8], 35.7 µM (inactive).

In the case of `CCCCCCCCCCCCn1c(=O)cc(NCCCC)c2cc3c(NCCCC)cc(=O)n(CCCCCCCCCCCC)c3nc21`, the GI50 in experiment [1] and in experiment [2] was > 100 µM (inactive) throughout.

In the case of `C=C1CC/C=C(\C)CCC[C@H](C)[C@@H](O)[C@@H]2OC(=O)C(=C)[C@@H]2C[C@H]1O`, the GI50 is 8.47 µM (inactive) in experiment [1] and 8.24 µM (inactive) in experiment [2].

Consider `O=C(O)c1nn[nH]c1Cl`, for which the GI50 in experiment [1] and in experiment [2] was > 100 µM (inactive) throughout.

With `Cc1cc(C)c2c(c1)CSCc1cc(C)cc(C)c1-2`, the GI50 in experiment [3] is 33.3 µM (inactive); in experiment [4] it was 25.2 µM (inactive); in experiment [5], 58.1 µM (inactive); in experiment [6], 37.6 µM (inactive); in experiment [7] it was 57.5 µM (inactive).

Turning to `Sc1nnc(COc2ccc(Cl)cc2Cl)[nH]1`, the GI50 in experiment [3], in experiment [4], in experiment [5], in experiment [7] and in experiment [8] was > 100 µM (inactive) throughout.

`O=C(Nc1sccc1S(=O)(=O)c1ccc(Cl)cc1)c1ccccc1`: the GI50 in experiment [1] and in experiment [2] was > 100 µM (inactive) throughout.

With `CC(C)[Si](OCC/C=C/C1CCC(=O)C1C(O)C1CCCCC1)(C(C)C)C(C)C` (stereo unspecified), the results for the GI50 in experiment [1] and in experiment [2] were 19.2 µM (inactive) and 15 µM (inactive), respectively.

For the compound `O=C(/C=C/c1ccc([N+](=O)[O-])cc1)N1CCN(CCOC(c2ccc(F)cc2)c2ccc(F)cc2)CC1`, the GI50 in experiment [1] was 27.1 µM (inactive); in experiment [2] it was 4.74 µM (inactive).

Consider `COc1ccc2c(c1)/C(=C(\C(Cl)=C(\Cl)N1CCCCC1)[N+](=O)[O-])N2`, for which the GI50 in experiment [1] and in experiment [2] was > 100 µM (inactive) each time.

For the compound `COc1cccc(NC(=O)/C(CS(=O)(=O)CCC(C(C)=O)C(C)=O)=N/NC(C)(C)C)c1`, the GI50 was > 100 µM (inactive) in experiment [3]; > 100 µM (inactive) in experiment [4]; > 100 µM (inactive) in experiment [5]; 42.9 µM (inactive) in experiment [6]; > 100 µM (inactive) in experiment [7].

Regarding `COc1cc(-c2ccccc2)cn2c1nc1ccccc12`, the GI50 in experiment [1] was 17.7 µM (inactive); in experiment [2], 20.7 µM (inactive).

Consider `COc1ccc(OC)c(/C=C(/C#N)c2ccccc2)c1`, for which the GI50 in experiment [3] was 28.7 µM (inactive); in experiment [5], 4.22 µM (inactive); in experiment [6], > 100 µM (inactive); in experiment [7], 34.3 µM (inactive).

Regarding `CN(C)c1c(Cl)c(=O)oc2c1ccc1nc(-c3ccccc3)sc12`, the GI50 in experiment [1] and in experiment [2] was > 100 µM (inactive) each time.

For the compound `N#CCCN(CCC#N)C(=O)c1cccc(C(=O)N(CCC#N)CCC#N)c1`, the GI50 in experiment [3] is > 88.9 µM (inactive); in experiment [4] it was > 100 µM (inactive); in experiment [5], > 100 µM (inactive); in experiment [7], 14.1 µM (inactive); in experiment [8] it was > 100 µM (inactive).

As for `O/N=C1\CC2(N3CCOCC3)CCC1(c1ccccc1)CC2`, the GI50 in experiment [1] and in experiment [2] was > 100 µM (inactive) in each case.

`O=C1NC(=O)C2C(=O)NC(=O)C1C2Cc1ccco1` (stereo unspecified): the GI50 in experiment [3], in experiment [4], in experiment [5] and in experiment [8] was > 100 µM (inactive) in each case.

For `CC(=O)Nc1ccc2c3c(cc(O)c2c1)N(C(=O)CCCCCC(=O)Nc1ccc2c4c(cc(O)c2c1)N(C(=O)OC(C)(C)C)CC4CCl)CC3CCl` (stereo unspecified), the GI50 is 1.53 µM (inactive) in experiment [1] and 0.541 µM (active) in experiment [2].

Consider `Oc1ccc(Cl)cc1-c1cc(-c2ccccc2)nc(NCN2CCCCC2)n1`, for which the GI50 in experiment [1] and in experiment [2] was > 100 µM (inactive) in each case.

On to `COc1ccc(/C=C(/C#N)C(N)=O)c(OC)c1`, for which the GI50 was 19.3 µM (inactive) in experiment [1] and > 100 µM (inactive) in experiment [2].

For `COc1ccc(/C=C2\N=C(c3ccccc3)OC2=O)cc1OC(C)=O`, the GI50 in experiment [2] was > 100 µM (inactive).

Turning to `CCOC1C=CC(=O)C(CO)O1` (stereo unspecified), the GI50 in experiment [1] is 15.3 µM (inactive); in experiment [2], 8.81 µM (inactive).

Consider `CC(C)(C)OC(=O)NC(Cc1ccc(OCc2ccccc2)cn1)C(N)=O` (stereo unspecified), for which the GI50 in experiment [1] was 68.5 µM (inactive).

Consider `Cc1cccc(NC(=S)Nc2ccc(Cl)cc2)n1`, for which the GI50 in experiment [2] is > 100 µM (inactive).

Turning to `CC(SC(=S)N1CCCC1)C(=O)Nc1nnc(-c2ccc(Cl)cc2)o1` (stereo unspecified), in experiment [2], the GI50 is 48.8 µM (inactive).

Regarding `CCCCCCC(C)CC(CCCCCC)NCCOC(=O)c1ccc([N+](=O)[O-])cc1` (stereo unspecified), the GI50 in experiment [2] was 15.6 µM (inactive).

Turning to `COc1cc(C2SCC(=O)N2c2cccc(Cl)c2)cc(OC)c1OC` (stereo unspecified), the GI50 in experiment [1] is 17.2 µM (inactive).

As to `COC(=O)c1cc(S(=O)(=O)NC2=NNC(C)CN2)c(S)cc1Cl` (stereo unspecified), the GI50 in experiment [1] was 35.3 µM (inactive).

For `O=C(O)c1cccc(OCCOc2cccc(C(=O)O)c2[N+](=O)[O-])c1[N+](=O)[O-]`, the GI50 in experiment [1] and in experiment [2] was > 100 µM (inactive) throughout.

Regarding `C=C(Cl)CN1c2ccccc2C=Cc2ccccc21`, the GI50 in experiment [1] was 15 µM (inactive); in experiment [2], 16.9 µM (inactive).

As to `CC(=O)Nc1ccc(-c2nnc(SCC(=O)Nc3cccc([N+](=O)[O-])c3)o2)cc1`, the GI50 was 12.8 µM (inactive) in experiment [3]; 10.2 µM (inactive) in experiment [4]; 10.9 µM (inactive) in experiment [5]; 21.1 µM (inactive) in experiment [6]; 2.99 µM (inactive) in experiment [7].

For `N=C(N)c1ccc(C(NC(=O)CNS(=O)(=O)c2ccc3ccccc3c2)P(=O)(Oc2ccccc2)Oc2ccccc2)cc1` (stereo unspecified), the GI50 was 47.6 µM (inactive) in experiment [1] and 65.3 µM (inactive) in experiment [2].

On to `CC1CC/C(=C\c2ccc(F)cc2)C(=O)/C1=C/c1ccc(F)cc1` (stereo unspecified), for which the GI50 in experiment [1] is 3.54 µM (inactive); in experiment [2] it was 5.46 µM (inactive).

Take `CC1(C)C2CCC3CC(CCC#N)CCC3C21C#N` (stereo unspecified): the GI50 in experiment [1] and in experiment [2] was > 100 µM (inactive) in each case.

On to `CC1(C)C=C(/C=N/Nc2ccccc2)C(C#N)=C(O)C1(C#N)C#N`, for which, in experiment [1], the GI50 was > 100 µM (inactive).

As for `Cc1nnc2n1N=C(c1cc(F)c(Cl)cc1Cl)/C(=C/c1ccc(-c3ccc([N+](=O)[O-])cc3)o1)S2`, in experiment [2], the GI50 is 28.6 µM (inactive).

Take `Cc1c(C)c(S(=O)(=O)N(CCCN)OCCCN)c(C)c2c1OC(C)(C)CC2`: the GI50 in experiment [1] is 15.8 µM (inactive); in experiment [2] it was 16.9 µM (inactive).

With `O=c1[nH]c(=O)n(C2CC(O)C(CO)O2)cc1Oc1ccccc1` (stereo unspecified), the GI50 in experiment [1] and in experiment [2] was > 100 µM (inactive) in each case.

Regarding `Cn1c(N)cc(=O)nc1N`, the GI50 in experiment [1] and in experiment [2] was > 100 µM (inactive) throughout.

Consider `O=C(/C(=C(/Br)I)c1ccccc1)c1ccccc1`, for which the GI50 in experiment [1] is 28.5 µM (inactive); in experiment [2], 22.6 µM (inactive).

As to `COC(=O)C1[C@H](c2ccc3c(c2)OCO3)OC(=O)[C@]1(C(=O)OC)C(=O)c1ccc(OC)c(OC)c1` (stereo partly specified), the GI50 in experiment [3] is 17.4 µM (inactive); in experiment [5], 25.1 µM (inactive); in experiment [6] it was > 100 µM (inactive); in experiment [7], 41.5 µM (inactive); in experiment [8] it was 81.8 µM (inactive).

With `COc1nc2c(c(=O)n1C)N(C(C)=O)C1C(N2)OCC(OC(C)=O)C1OC(C)=O` (stereo unspecified), the GI50 in experiment [1] and in experiment [2] was > 10 µM (inactive) in each case.

Consider `CCCCNc1nc(O)c2[nH]cnc2n1`, for which the GI50 in experiment [1] and in experiment [2] was > 100 µM (inactive) each time.

`CC(C)C1CC(O)O[C@@H]([C@@H](C)[C@H]2CC(=O)[C@@H]3[C@@H]4[C@@H](O)[C@H](O)[C@H]5[C@@H](O)[C@H](O)CC[C@]5(C)[C@H]4CC[C@]23C)C1` (stereo partly specified): the GI50 in experiment [3] is > 100 µM (inactive); in experiment [5], 39.8 µM (inactive); in experiment [7], > 100 µM (inactive); in experiment [8] it was 18.9 µM (inactive).

Take `c1csc(-c2ccsc2-c2cccs2)c1`: the GI50 in experiment [1] was 35.8 µM (inactive); in experiment [2] it was 29.9 µM (inactive).

As to `C=C(C)[C@@H]1CC[C@]2(C(=O)O)CC[C@]3(C)[C@H](CC[C@@H]4[C@@]5(C)CC(=O)C(C)(C)[C@@H]5CC[C@]43C)[C@@H]12`, the GI50 in experiment [1] is 8.13 µM (inactive); in experiment [2] it was 14.9 µM (inactive).

As to `Oc1ccc(-c2nc(-c3cccnc3)c(-c3ccc(Cl)cc3)[nH]2)cc1`, the GI50 is 12.6 µM (inactive) in experiment [1] and 11.7 µM (inactive) in experiment [2].

`COc1ccccc1-c1cc(O)c2ccc(C)nc2n1`: in experiment [2], the GI50 was > 100 µM (inactive).

Regarding `COC(=O)C(Cc1c[nH]c2ccccc12)NC(=O)C(Cc1c[nH]c2ccccc12)NC(=O)C(Cc1c[nH]c2ccccc12)NC(=O)C(Cc1c[nH]c2ccccc12)NC(=O)C(Cc1c[nH]c2ccccc12)NC(=O)C(Cc1c[nH]c2ccccc12)NC(=O)C(Cc1c[nH]c2ccccc12)NC(=O)OC(C)(C)C` (stereo unspecified) (Boc-WWWWWWW-OMe; configuration not given here), the GI50 in experiment [1] was 63.7 µM (inactive); in experiment [2], > 100 µM (inactive).

As for `COc1cc2oc(-c3ccc(O)cc3O)c(CC=C(C)C)c(=O)c2c(O)c1/C=C/C(C)C` [ARTOCARPIN], the GI50 in experiment [1] is 2.79 µM (inactive); in experiment [2], 7.1 µM (inactive).

For the compound `C[C@@H](Oc1ccc(Oc2cnc3ccc(Cl)cc3n2)cc1)C(=O)O` [R(+)XK469], the GI50 in experiment [1] and in experiment [2] was > 100 µM (inactive) in each case.

`CN(C)CCOc1ccc(/C(=C(/CCCl)c2ccccc2)c2ccccc2)cc1` [TOREMIFENE CITRATE]: the GI50 is 16.4 µM (inactive) in experiment [1] and 11.6 µM (inactive) in experiment [2].
